Residues, ends and D or L forms follow the SMILES beside them.

Three compounds from patent US20240316140A1 (UBIO INC., priority 2021, published 2024) can be followed below.

In one data set the test system is HepG2 hepatoma cell line. Briefly: HepG2 cytotoxicity evaluation of peptide (MTT). The settings on record: tested 0.01 to 1000 ug/ml, 24 hours, non-toxic concentration. The data set is classed as cell-based, human. The method, then:
After culturing a HepG2 hepatoma cell line, three kinds of synthetic peptides were added by concentration, and MTT (methylthiazol tetrazolium bromide, Sigma Aldrich) was carried out to confirm cell viability. An appropriate amount (1×10^5/well) of cells was seeded on each well in a 24-well plate (BD, Falcon) to treat a sample according to the concentration, and cell viability was confirmed after cultivation for 24 hours in a 37° C. incubator.

The test system of the next data set is HepG2 cells. Briefly: Hepatocyte protection ability of peptide against t-BHP damage (MTT). The settings on record: 10 mM t-BHP. The data set is classed as cell-based, human. Here is the method:
HepG2 cells, which are hepatoma cell lines, were dispensed in the 24-well plate at 1×10^5/well and cultured. Thereafter, in order to confirm hepatocyte protection ability of three kinds of synthetic peptides, the peptides were treated by concentration, cultured for 23 hours, and then 10 mM of t-BHP was treated for damage to the hepatocytes to culture the same for 90 minutes.

Consider `CC(C)[C@H](N)C(=O)N[C@H](C(=O)N[C@H](C(=O)N[C@@H](CCC(=O)O)C(=O)O)C(C)C)C(C)C` [PEP-1, VVVE] (H-VVVE-OH; N-terminus and C-terminus assumed), for which the “Test Concentration Setting, Cytotoxicity (HepG2)” value with HepG2 hepatoma cell line is reported as “less than 10 ug/ml”. Further, the “Hepatocyte Protection Ability” value in the data set on HepG2 cells (10 ug/ml peptide) is listed as 7%.
Consider `CC(C)C[C@H](NC(=O)CNC(=O)[C@@H](N)CC(=O)O)C(=O)N[C@@H](Cc1c[nH]cn1)C(=O)N[C@@H](CC(C)C)C(=O)N[C@@H](CCCNC(=N)N)C(=O)O` [PEP-2, DGLHLR] (H-DGLHLR-OH; N-terminus and C-terminus assumed), for which, in the data set on HepG2 hepatoma cell line, the “Test Concentration Setting, Cytotoxicity (HepG2)” value is “less than 10 ug/ml”. Moreover, the “Hepatocyte Protection Ability” value with HepG2 cells (0.1 ug/ml peptide) is given as 15%; with HepG2 cells (1 ug/ml peptide), 20%; in the data set with HepG2 cells (10 ug/ml peptide), 26%.
For `CC(C)[C@H](NC(=O)[C@H](CO)NC(=O)[C@@H]1CCCN1C(=O)[C@H](CC(N)=O)NC(=O)[C@H](Cc1ccccc1)NC(=O)[C@H](CC(=O)O)NC(=O)[C@@H](N)CC(=O)O)C(=O)N[C@@H](Cc1c[nH]cn1)C(=O)O` [PEP-3] (H-DDFNPSVH-OH; N-terminus and C-terminus assumed), in that order: “less than 10 ug/ml”, 9%, 20% and 20%.
